Test results from PMC3944516, “Isolation and Characterization of Anti-Adenoviral Secondary Metabolites from Marine Actinobacteria” (Marine Drugs, 2014).
“Also recorded” adds a separate entry of the source.

How the values were obtained:
[1] = XTT based cytotoxicity test on A549 cells; format: cell-based, human; details: human, A549 cells, 24 h, XTT, normalized against DMSO controls, two independent experiments; for viability at 24 h, 400 µM: read-out: % Viable Cells at 400 μM; for viability at 24 h, 800 µM: read-out: % Viable Cells at 800 μM
Source text: (§1) Consideration of cellular cytotoxicity is essential when identifying antiviral compounds. Compounds that negatively interfere with the proliferation or viability of host cells will be recorded as false positives when assayed for antiviral activity. […] The XTT test measures the ability of mitochondrial enzymes to reduce 2,3-bis-(2-methoxy-4-nitro-5-sulfophenyl)-2H-tetrazolium-5-carboxanilide to a colored formazan dye that is spectrophotometrically quantified. […] Strikingly, butenolide 4 with the non-functionalized side-chain affected the viability dramatically. At both 400 and 800 μM of 4 the percentage of viable cells was close to zero, whereas for butenolide 1–3 the cells were as viable as the DMSO control at the concentrations tested. […] To further elucidate this difference and determine whether the cytotoxicity was cell type specific, we performed a dose-response experiment and investigated the cytotoxicity on human diploid fibroblasts derived from foreskin (FSU). FSU cells are isolated from the dermis of juvenile foreskin and, unlike A549 cells, are not derived from carcinoma, but primary cells with a limited expected number of cell divisions. […] However, the butenolide 4 with a non-functionalized side-chain reduced the viability of A549 cells and FSU cells to almost zero at 400 and 800 μM. […] The reason for the steep concentration dependence on cytotoxicity for the butenolide 4 containing a non-functionalized side-chain is presently unknown, and the large difference in cytotoxic potential between 4 and the other analogs is noteworthy when considering the minor structural differences in their side-chains.
(§2) The potential cytotoxic effect of the compounds was determined with XTT-based Cell Proliferation Kit II (Roche Applied Science, Penzberg, Germany). This method is a colorimetric assay based on the cleavage of the tetrazolium salt XTT to a soluble formazan salt by viable cells. Approximately, 13,000 A549 cells were seeded per well in 96-well plates on the day before addition of compounds. The next day, the growth medium was removed from the wells and replaced with 100 μL of phenol-red free DMEM with 2% FBS containing compound. In parallel, an amount of DMSO corresponding to the same amount of test compound was added to the cells and the plate was incubated at 37 °C for 20 h. Subsequently, 50 μL of XTT solution was added per well and the plate was incubated at 37 °C for 4 h and finally the intensity of the formazan dye was measured by spectrophotometry at a wavelength of 490 nm.

HAdV type 5 [2] = assay: quantitative real-time PCR (qPCR) anti-adenoviral dose-response assay; format: cell-based, human adenovirus type 5 (strain F2853-5b) in A549 cells; details: for EC50: Human mastadenovirus C, A549 host cells, qPCR of viral genomes after 24 h, duplicates; for anti-adenoviral activity (in words): dose-response up to 0.4 mM, qPCR 24 h post infection (Figure 8B)
Protocol: In order to confirm the antiviral activity observed during the screening campaign (Figure 3) and determine the EC50 values of the analogs, we conducted a dose-response experiment by a standardized quantitative real-time PCR (qPCR) assay (Figure 5). In this assay, the number of adenoviral genomes is assessed in relationship to the number of cells and the replication of HAdV type 5 on A549 host cells was assessed.
Figure 5 Dose-response study of the identified compounds on HAdV type 5. Each concentration point was run in duplicate and qPCR-analysis performed after 24 h. The amount of HAdV type 5 genomes in each treated sample was compared to infected but non-treated samples to obtain the inhibition of the percentage of control (y-axis). See the experimental section for details.
The quantitative Real Time PCR (qPCR) assay was performed as previously described. Briefly, A549 cells in 24 well plates (Nunc™ #142475) were infected with HAdV type 5 (1 pg per cell) and incubated with compound for 24 h. Thereafter, cellular and viral DNA was prepared using a QIAamp DNA blood minikit (Qiagen, Solna, Sweden) and quantitative real-time PCR was used to detect newly synthesized viral DNA and the inhibitory effect of the compounds. The principle of quantitative real-time PCR and the design of primers and probes for analysis of various HAdV types representing different adenovirus species have previously been described. Quantitative real-time PCR was carried out using a primer pair and a FAM-labeled probe detecting and amplifying the viral hexon gene. The amount of detected viral hexon DNA was normalized to the cellular RNaseP gene. Real-time PCR was performed in an ABI Prism 7900HT sequence detector and analyzed with Sequence Detector software version 2.4 (Applied Biosystems®, Life Technologies, Grand Island, NY, USA).
Determination of the EC50 values was performed with non-linear regression analysis with a variable slope using GraphPad Prism software version 6.0c (GraphPad Software, San Diego, CA, USA).

A549 cells = assay: XTT based cytotoxicity test on A549 cells; format: cell-based, human; details: for concentration above which the viability of the cells is significantly reduced: A549 cells, XTT (Figure 8C)
Source text: as §1, §2

[3] = tested on: FSU cells (human diploid fibroblasts derived from foreskin); assay: XTT based cytotoxicity dose-response on FSU cells; format: cell-based; details: 24 h
Source text: as §1
Figure 6 The cytotoxicity profile of butenolide ketone 3 and butenolide 4 with a non-functionalized side chain, on two cell lines, A549 cells and FSU cells, analyzed after 24 h. See experimental section for details.
as §2

[4] = tested on: HAdV 5 virions binding to A549 cells; assay: binding assay with 35S-labelled HAdV 5 virions; format: cell-based, human adenovirus type 5 in A549 cells; details: A549 cells pre-treated with 200 μM for 1.5 h, compared to the control
Protocol: (§3) Figure 7 Characterization of the antiviral activity of the butenolide ketone 3. The antiviral activity of the compounds was obtained by comparing the amount of HAdV type 5 genomes per cell to non-treated but infected control samples (y-axis). (A) Time-of-addition assay where 200 μM of butenolide ketone 3 was added at different time points in comparison to the addition of HAdV 5 at time 0 h. Samples were analyzed 24 h after the infection (+24 h) with qPCR; (B) Binding assay with ^35S-labelled HAdV 5 virions, with 200 μM compound 3 pretreated A549 cells for 1.5 h prior time-of-infection (TOI) and no pretreatment; (C) Virucidal assay where HAdV 5 virions were pretreated with 200 μM of butenolide ketone 3 prior addition to A549 cells and analyzed after 24 h.
This was primarily to investigate in which stage of the viral infectious cycle that the butenolide ketone 3 inhibited and consequently to reduce the number of possible drug-targets for further mode-of-action analysis. […] Simultaneous addition of 200 μM of 3 and virus (0 h) reduced the viral replication to below 20%, which is consistent with Figure 5. […]
^35S labelling of HAdV 5 was performed as previously described as well as the binding experiment. […] The cell-associated radioactivity was measured using a liquid scintillation counter (Wallac 1409, Perkin-Elmer, Waltham, MA, USA).

HAdV 5 virions = assay: virucidal assay; format: cell-based, human adenovirus type 5 in A549 cells; details: virions incubated with 200 μM for 2 h before infection, qPCR after 24 h
Protocol: as §3
This was primarily to investigate in which stage of the viral infectious cycle that the butenolide ketone 3 inhibited and consequently to reduce the number of possible drug-targets for further mode-of-action analysis. […]
The HAdV type 5 stock was diluted in DMEM (Sigma-Aldrich, St. Louis, MO, USA) with 2% FBS (Gibco®, Life Technologies, Grand Island, NY, USA) to the appropriate concentration to be added per well. […] In parallel, an identical mixture with no incubation time was added to wells as a control and the antiviral activity was analyzed 24 h post infection with qPCR assay.

HAdV type 5 [5] = assay: time-of-addition assay (qPCR); format: cell-based, human adenovirus type 5 in A549 cells
Protocol: as §3, with “24 h. […]” for “24 h.”
The quantitative Real Time PCR (qPCR) assay was performed as previously described. […] Thereafter, cellular and viral DNA was prepared using a QIAamp DNA blood minikit (Qiagen, Solna, Sweden) and quantitative real-time PCR was used to detect newly synthesized viral DNA and the inhibitory effect of the compounds. The principle of quantitative real-time PCR and the design of primers and probes for analysis of various HAdV types representing different adenovirus species have previously been described. Quantitative real-time PCR was carried out using a primer pair and a FAM-labeled probe detecting and amplifying the viral hexon gene. […]

CCC(C)(O)CCCCC[C@H]1C=CC(=O)O1 (some centres unmarked) [Compound 2]
viability at 24 h, 400 µM [1]: 106 ± 7% | viability at 24 h, 800 µM [1]: 100 ± 3% | EC50 (HAdV type 5 [2]): 183 µM

CC[C@H](C)CCCCC[C@H]1CCC(=O)O1 [Compound 6]
concentration above which the viability of the cells is significantly reduced (A549 cells; 24 h): above 0.4 mM | anti-adenoviral activity (in words) (HAdV type 5 [2]): eliminated the antiviral activity

CCC(C)CCCCCC1C=CC(=O)O1 (centres unmarked) [Compound 4]
viability at 24 h, 400 µM [1]: 3 ± 1% | viability at 24 h, 800 µM [1]: 3 ± 1% | viability of A549 cells (in words) (A549 cells; 100 μM, 24 h, XTT (Figure 6)): in line with untreated DMSO control | cytotoxicity on A549 cells (in words) (A549 cells; 200 μM, 24 h, XTT (Figure 6)): toxicity was strongly decreased | viability of A549 cells (in words) (A549 cells; 400 and 800 μM, 24 h, XTT): close to zero | concentration above which the viability of the cells is significantly reduced (A549 cells; 24 h): above 0.2 mM | concentration showing cytotoxicity relative to EC50 (A549 cells; cytotoxic concentration compared with the EC50 on HAdV type 5): approximately three times its EC50 value | viability of FSU cells (in words) ([3]; 100 μM, XTT (Figure 6)): in line with untreated DMSO control | cytotoxicity on FSU cells (in words) ([3]; 200 μM, XTT (Figure 6)): toxicity was strongly decreased | viability of FSU cells (in words) ([3]; 400 and 800 μM, XTT): almost zero | EC50 (HAdV type 5 [2]): 90 µM

C[C@H](O)[C@H](C)CCCCC[C@H]1C=CC(=O)O1 [Compound 1a]
viability at 24 h, 400 µM [1]: 98 ± 6% | viability at 24 h, 800 µM [1]: 96 ± 4% | EC50 (HAdV type 5 [2]): 113 µM

CC(=O)[C@H](C)CCCCC[C@H]1CCC(=O)O1 [Compound 5]
anti-adenoviral activity (in words) (HAdV type 5 [2]): eliminated the antiviral activity

CC(=O)[C@H](C)CCCCC[C@H]1C=CC(=O)O1 [Compound 3]
viability at 24 h, 400 µM [1]: 102 ± 5% | viability at 24 h, 800 µM [1]: 101 ± 3% | cytotoxicity (in words) (A549 cells; XTT, concentrations tested): no cytotoxicity | cytotoxicity at the highest concentration (in words) ([3]; 2 mM, XTT (Figure 6)): no prominent cytotoxicity; also recorded: did not affect the viability of FSU cells to a great extent | binding of the virus to the cells (in words) [4]: did not reduce the binding of the virus to the cells | EC50 (HAdV type 5 [2]): 91 µM | virucidal activity (in words) (HAdV 5 virions): did not differ between the pretreated and non-pretreated virions | viral replication, % of non-treated infected control (HAdV type 5 [5]; 200 μM added simultaneously with virus (0 h), qPCR 24 h after infection): below 20% | effect on viral infection (in words) (HAdV type 5 [5]; cells pre-incubated with 200 μM for four hours prior to the addition of virus, qPCR at 24 h): completely blocked the viral infection
